Reference: ChEMBL document CHEMBL1143283, “Preliminary biological evaluations of new thalidomide analogues for multiple sclerosis application” (Bioorg Med Chem Lett, 2009)
Active and inactive are the calls of the source. The rule behind the calls is not given here.

What was measured:
Mus musculus [1] = experiment: Antiangiogenesis activity against MOG peptide, pertussis toxin, Mycobacterium tuberculosis-induced experimental allergic encephalomyelitis C57BL/6J mouse model assessed as inhibition of multiple sclerosis at dose equivalent to 100 mg/kg of thalidomide up to 15 days; format: functional, organism-based; parameters: dose 100 mg/kg
[2] = Antiproliferative activity against human EAhy926 cells; format: functional, cell-based; conditions: EA.hy 926
EA.hy 926 [3] = experiment: Antiproliferative activity against human EAhy926 cells at 10 uM; format: functional, cell-based
EA.hy 926 [4] = experiment: Antiproliferative activity against human EAhy926 cells at 12 uM; format: functional, cell-based
Mus musculus [5] = experiment: Antiangiogenesis activity against MOG peptide, pertussis toxin, Mycobacterium tuberculosis-induced experimental allergic encephalomyelitis C57BL/6J mouse model assessed as inhibition of multiple sclerosis at 100 mg/kg up to 15 days; format: functional, organism-based; parameters: dose 100 mg/kg

SMILES | Activity (Mus musculus [1]) | IC50 [2] | other results
O=C1CCC(N2C(=O)c3ccc(NCCCCC(NC(=O)[C@H](O)[C@H](O)[C@H](O[C@@H]4O[C@H](CO)[C@H](O)[C@H](O)[C@H]4O)[C@H](O)CO)C(=O)NCCC(F)(F)C(F)(F)C(F)(F)C(F)(F)C(F)(F)C(F)(F)C(F)(F)C(F)(F)F)cc3C2=O)C(=O)N1 (stereo partly drawn) | inactive | – | –
CC(C)(C)OC(=O)NCCNc1ccc2c(c1)C(=O)N(C1CCC(=O)NC1=O)C2=O (stereo not drawn) | – | 41 µM | –
NCCNc1cccc2c1C(=O)N(C1CCC(=O)NC1=O)C2=O (stereo not drawn) | – | 150 µM | –
NCCNc1ccc2c(c1)C(=O)N(C1CCC(=O)NC1=O)C2=O (stereo not drawn) | inactive | – | Activity (EA.hy 926 [3]): inactive; Activity (EA.hy 926 [4]): inactive
O=C1CCC(N2C(=O)c3ccccc3C2=O)C(=O)N1 (stereo not drawn) [THALIDOMIDE] | – | 200 µM | Activity (Mus musculus [5]): inactive
Nc1ccc2c(c1)C(=O)N(C1CCC(=O)NC1=O)C2=O (stereo not drawn) | inactive | – | –
O=C1CCC(N2C(=O)c3ccc(NCCCNC(=O)C(O)C(O)C(O[C@@H]4O[C@H](CO)[C@H](O)[C@H](O)[C@H]4O)C(O)CO)cc3C2=O)C(=O)N1 (stereo partly drawn) | Active | – | –
O=C1CCC(N2C(=O)c3ccc([N+](=O)[O-])cc3C2=O)C(=O)N1 (stereo not drawn) | – | – | Activity (EA.hy 926 [3]): inactive; Activity (EA.hy 926 [4]): inactive
O=C1CCC(N2C(=O)c3ccc(C(=O)O)cc3C2=O)C(=O)N1 (stereo not drawn) | Active | – | –
